The values that follow come from PubChem BioAssay (NCI).

Where “and” joins values, the source holds several entries; their conditions need not be identical. Identical values can stand only once.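 In this assay, cells in 96-well plates receive the compound at five concentrations for 48 hours. Endpoints are linearly interpolated between the surrounding concentrations. Abbreviation: GI50, concentration required for 50% inhibition of growth. TGI: total growth inhibition.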

Common to all, as to assay: NCI anticancer screen, dose series, 48 h
The subject of assay [1] is ACHN renal.
Assay [2] has as its system DLD-1 colon.
Assay [3] has as its system LXFL 529 NSCLC.
For assay [4], the system named is M14 melanoma.
Assay [5] relates to MALME-3M melanoma.
In assay [6] the test system is NCI-H522 lung.
The test system of assay [7] is OVCAR-3 ovarian.
Assay [8] concerns SF-539 CNS.
The test system of assay [9] is SN12C renal.
For assay [10], the system named is TK-10 renal.

`O=C1c2cccc(NCCCNCCO)c2C(=O)c2cccc(NCCCNCCO)c21`: the TGI in assay [1] was 5.71 µM and 10.4 µM; in assay [2], 12 µM and 6.25 µM; in assay [3], 2.95 µM and 10.1 µM; in [4] it was 4.3 µM and 8.78 µM; in assay [5] it was 3.94 µM and 10.4 µM; in [6] it was 1.6 µM. Besides, the TGI was 5.65 µM and 9.94 µM in assay [7]; 4.13 µM and 2.84 µM in assay [8]; 6 µM and 5.31 µM in assay [9]; 8.6 µM and 13.4 µM in assay [10]. Moreover, the GI50 was 0.844 µM and 2.22 µM in [3]; 2.06 µM and 4.18 µM in assay [5].
For `CC1=NNC(=O)C2CCC(=O)N12` (stereo unspecified), the TGI in assay [1], in assay [2], in [3], in [4], in [5] and in assay [6] was above 100 µM throughout. Also, the TGI in assay [7], in assay [8], in assay [9] and in [10] was above 100 µM each time.
Take `COc1cc(C(Cc2ccccc2)NC(C)=O)oc(=O)c1` (stereo unspecified): the TGI in [1], in assay [2], in assay [3], in assay [4], in [5] and in [6] was above 100 µM in each case. Also, the TGI in assay [7], in [9] and in assay [10] was above 100 µM throughout.
On to `[N-]=[N+]=NC12CC3C4CC5CC3C(C1)C(C5)C4C2`, for which the TGI in assay [1], in assay [2], in assay [3], in assay [4], in [5] and in assay [6] was above 100 µM throughout. Moreover, the TGI in assay [7], in [8], in assay [9] and in assay [10] was above 100 µM throughout.
On to `C=COCCCOc1ccccc1`, for which the TGI in assay [1], in assay [2], in assay [3], in assay [4], in [5] and in assay [6] was above 100 µM throughout. Moreover, the TGI in [7], in assay [8], in [9] and in [10] was above 100 µM each time.
`CC(C)c1ccccc1NC(=O)CCc1n[nH]c(=S)o1`: the TGI was above 100 µM in [1]; above 89.2 µM in assay [2]; above 100 µM in assay [3]; above 100 µM in [4]; above 100 µM in [5]; above 100 µM in assay [6]. Moreover, the TGI in assay [7], in assay [8], in [9] and in [10] was above 100 µM each time.
Regarding `S=C(Nc1ccccc1)N(/N=C/C=C/c1ccccc1)c1nnc(-c2ccccc2)c(-c2ccccc2)n1`, the TGI in assay [1], in [2], in assay [4], in assay [5], in assay [6] and in assay [7] was above 100 µM each time. Also, the TGI in [8], in [9] and in [10] was above 100 µM in each case.
Turning to `S=C1NC2(CCCCCC2)NN1c1ccccc1`, the TGI in [1], in assay [2], in assay [4], in assay [5], in [6] and in assay [7] was above 100 µM in each case. In addition, the TGI in assay [9] and in [10] was above 100 µM throughout.
On to `CCC[CH2][Sn]1([CH2]CCC)[O]N=C(c2ccccc2)C(c2ccccc2)[O]1` (stereo unspecified), for which the GI50 in [1] was 1.72 µM; in assay [2] it was 1.79 µM; in assay [3], 0.316 µM; in assay [4], 1.63 µM; in assay [5], 1.13 µM; in assay [6], 0.362 µM. Besides, the GI50 was 1.42 µM in assay [7], 1.79 µM in [8], 1.77 µM in assay [9] and 1.9 µM in [10]. Besides, the TGI stood at 3.1 µM in [1]; 3.58 µM in assay [2]; 1.23 µM in [3]; 3.09 µM in [4]; 2.49 µM in [5]; 1.47 µM in assay [6]. In addition, the TGI in [7] worked out at 2.84 µM; in assay [8], 3.39 µM; in assay [9] it was 3.18 µM; in assay [10], 4.09 µM.
With `Cn1c2c(c3ccccc31)C1CCCCCCC1C1C(=O)OC(=O)C21` (stereo unspecified), the TGI was above 100 µM in assay [1]; above 100 µM in assay [2]; above 100 µM in [3]; above 100 µM in assay [4]; 69 µM in [5]; 47.8 µM in assay [7]. The TGI in assay [8], in assay [9] and in assay [10] was above 100 µM each time.
For the compound `O=[N+]([O-])c1ccc(C2=Nn3cnnc3SC2)o1`, the TGI is 29.4 µM in assay [1]; 41.4 µM in assay [2]; 26.4 µM in [3]; 32.8 µM in assay [4]; 31.7 µM in [7]; 36.3 µM in assay [8]. The TGI in assay [9] was 30.1 µM; in [10] it was above 100 µM.
On to `COc1cccc(/C=C/c2cc(OC)c(OC)c(OC)c2)c1`, for which the TGI in assay [1], in assay [2], in [3], in [4], in [5] and in assay [6] was above 100 µM in each case. Besides, the TGI in [7], in [8] and in [9] was above 100 µM each time.
For `Cc1ccc(NC(=O)C(=O)C(C(=O)c2ccc3ccccc3c2)C2OC(=O)c3ccccc32)cc1C` (stereo unspecified), the TGI in [1] is above 100 µM; in assay [2], 36.7 µM; in [3], 22 µM; in assay [4] it was 32.2 µM; in [5] it was 57.8 µM; in assay [7] it was 48.6 µM. The results for the TGI in [8], in assay [9] and in assay [10] were 11.4 µM, 44.8 µM and 94.6 µM, respectively.
On to `O=C(/C=C/c1ccccc1O)c1ccccc1O`, for which the TGI in [1], in assay [2], in [5], in assay [6], in assay [7] and in assay [8] was above 100 µM throughout. Further, the TGI in [9] and in [10] was above 100 µM in each case.
With `Cc1cc([N+](=O)[O-])ccc1Nc1cccc(Cl)c1C`, the TGI in [1] came out at 41.4 µM; in [2] it was 33.5 µM; in assay [3], 28.3 µM; in [4] it was 29.1 µM; in assay [5], 29.2 µM; in assay [6], 31 µM. Further, the TGI was 27.8 µM in assay [7], 32.1 µM in assay [9] and 30 µM in assay [10].
For the compound `Cc1ccc(Cc2c(=O)[nH]nc3ccccc23)cc1`, the TGI in assay [1], in [2], in [4], in assay [5], in assay [7] and in assay [8] was above 100 µM throughout. Besides, the TGI in [9] and in assay [10] was above 100 µM each time.
With `CCCCC(C(=O)C(=O)NC1C2CC3CC(C2)CC1C3)C(=O)C(C)C` (stereo unspecified), the TGI in assay [1], in assay [3], in [4], in [5], in [6] and in assay [7] was above 100 µM in each case. Also, the TGI in assay [8], in assay [9] and in assay [10] was above 100 µM throughout.
On to `CN(C)/C=N/c1nc2c(ncn2C2OC(CO)C(O)C2O)c(=O)[nH]1` (stereo unspecified), for which the TGI in assay [1], in assay [2], in assay [3], in assay [4], in assay [5] and in assay [7] was above 100 µM throughout. Further, the TGI in assay [8], in [9] and in assay [10] was above 100 µM in each case.
Turning to `CN(C)c1ccc(C(C=C2c3ccccc3Sc3ccccc32)=C(C#N)C#N)cc1`, the TGI in assay [1], in [2], in [3], in [4], in assay [5] and in assay [7] was above 100 µM each time. Also, the TGI in assay [8], in assay [9] and in assay [10] was above 100 µM in each case.
Take `Cc1cc(CC(O)c2ccc(Cl)c(Cl)c2)nc(=O)[nH]1` (stereo unspecified): the TGI in assay [1] is above 100 µM; in assay [2], above 100 µM; in [3] it was 59.2 µM; in assay [4] it was above 100 µM; in [5], above 100 µM; in [6], 69.9 µM. The TGI in [7], in assay [9] and in assay [10] was above 100 µM each time.
Turning to `CC(O)CCC(=O)c1ccoc1` (stereo unspecified), the TGI in [1] was above 10000 µM; in [2], above 10000 µM; in assay [4], above 10000 µM; in assay [5], above 8380 µM; in assay [6], 8270 µM; in assay [7], 9960 µM. Moreover, the TGI in assay [8] is above 10000 µM; in [9], 9930 µM; in assay [10] it was above 10000 µM.
In the case of `Cc1cc(I)cc(CN(C)CCCN2CCCCCCC2)c1O`, the GI50 in assay [1] is 18.1 µM; in assay [4], 15.5 µM; in assay [5], 19.5 µM; in [6], 19.3 µM; in [7], 14.8 µM; in assay [8], 15.1 µM. Also, the GI50 was 18 µM in assay [9] and 13.4 µM in [10]. The TGI is 32.4 µM in assay [1]; 33.2 µM in assay [4]; 36.1 µM in assay [5]; 38.4 µM in assay [6]; 29.1 µM in [7]; 29.2 µM in assay [8]. The TGI was 41.1 µM in [9] and 27 µM in [10].
With `O=C(CNc1ccc(Cl)cc1)Nc1ccc(-c2nc3ccccc3s2)cc1`, the GI50 is 5.81 µM in [1]; 2.1 µM in assay [4]; 6.06 µM in assay [5]; 1.53 µM in [6]; 2.04 µM in assay [7]; 4.93 µM in [8]. Also, the GI50 in [9] was 3.07 µM; in [10], 5.98 µM. The TGI in assay [1] is 12.6 µM; in [4], 5.15 µM; in assay [5], 12.6 µM; in assay [6], 3.67 µM; in assay [7], 3.99 µM; in assay [8], 9.79 µM. Further, the TGI came out at 10.5 µM in assay [9] and 13.7 µM in assay [10].
For `Cc1nn(-c2ccccc2)c2nc(N3CCOCC3)nnc12`, the TGI in assay [1], in assay [2], in [3], in assay [4], in assay [5] and in assay [7] was above 100 µM in each case. In addition, the TGI in assay [8], in assay [9] and in assay [10] was above 100 µM throughout.
As for `CCC(C)n1ncn(-c2ccc(N3CCN(c4ccc(OCC5COC(Cn6cncn6)(c6ccc(Cl)cc6Cl)O5)cc4)CC3)cc2)c1=O` (stereo unspecified), the GI50 is 21.7 µM in assay [1]; 5.91 µM in assay [4]; 46.2 µM in assay [5]; 15.4 µM in [6]; 40.9 µM in assay [7]; 7.73 µM in [8]. The GI50 in assay [9] is above 100 µM; in assay [10], 28.6 µM. Besides, the TGI in assay [1] is above 100 µM; in assay [4], above 100 µM; in [5], above 100 µM; in assay [6], 60.8 µM; in [7], above 100 µM; in assay [8] it was above 100 µM. In addition, the TGI in assay [9] and in [10] was above 100 µM in each case.
For the compound `Cc1ccc(C)c(C2=C(c3cn(C)c4ccccc34)C(=O)NC2=O)c1`, the GI50 in assay [1] is 9.15 µM; in assay [4], above 25 µM; in assay [5], above 25 µM; in assay [6], above 25 µM; in assay [7], 15.1 µM; in assay [8] it was above 16.4 µM. Moreover, the GI50 in assay [9] and in [10] was above 25 µM throughout. In addition, the TGI in [1], in assay [4], in assay [5], in assay [6], in [7] and in assay [8] was above 25 µM each time. Moreover, the TGI in [9] and in assay [10] was above 25 µM each time.
